Reference: PubChem BioAssay AID2060342 (Molecular Pharmacology Branch, DTP, NCI, 2025)
Several values for one entry are separate records, joined by “and”; a condition that tells them apart may be missing. Equal values may be shown once. Values belong to the compound of their own block, whether it stands above or below them.

System: 171881-019-R-J1-PDC multicell spheroid viability
Experiment: Anticancer human tumor 171881-019-R-J1-PDC patient-derived invasive breast carcinoma cell line growth inhibition [IpAb]
Details: for viability, T/C: stronger effect = lower value
Excerpt: Combinatorial screen of targeted agents with ipatasertib and abemaciclib in multi-cell type tumor spheroids
A high-throughput screen of multi-cell type tumor spheroids was designed to identify active combinations of targeted small molecules and ipatasertib or abemaciclib. Complex spheroids include a stromal component modeled by human endothelial cells (HUVEC) and fibroblasts modeled by human mesenchymal stem cells (MSCs). The concentration ranges selected for each drug and investigational agent were based upon clinically achievable concentrations if the clinical Cmax of the agent was known.
Compounds. The drugs and investigational agents: ipatasertib (NSC767898), abemaciclib(NSC768073), selumetinib (NSC741078), trametinib (758246), adavosertib (NSC754352), everolimus (NSC733504), sapanisertib (NSC764658), vemurafenib (NSC761431), venetoclax (NSC766270), copanlisib (NSC809693), apelisib (NSC765974), palbociblib (NSC758247), vemurafenib (NSC761431), dabrafenib (NSC764134), ravoxertinib (NSC781343), BMS-387032 (NSC767048), sotorasib (NSC818433), talazoparib (NSC767125) and afursertib (NSC778305), were obtained from the National Cancer Institute (NCI) Developmental Therapeutics Program Chemical Repository. The FDA-approved anticancer drug set is available from the NCI Developmental Therapeutics Program. […] The stock solutions were prepared in dimethyl sulfoxide (DMSO, Sigma-Aldrich, St. Louis, MO, cat. D2650) at 800-fold the tested concentration and stored at -70 degrees C prior to their use. All drugs and investigational agents were tested over a range starting from a high concentration at or near the clinical Cmax and decreasing in half-log increments. If the clinical Cmax for an agent had not been determined, the highest concentration tested was 10 microM.
NCI60 Cell Culture. NCI60 cell lines were obtained from the NCI Developmental Therapeutics Program Tumor Repository. For each lot of cells, the Repository performed Applied Biosystems AmpFLSTR Identifiler testing with PCR amplification to confirm consistency with the published Identifier STR profile for each cell line. Cells were kept in continuous culture for no more than 20 passages. The optimal seeding densities for each of the cell lines at each time point assessed were determined prior to performing the concentration response studies. Briefly, the NCI60 human tumor lines were grown as monolayers in RPMI 1640 medium supplemented with 10% FBS and 2 mmol/L L-glutamine.
An additional 9 lines were from the NCI60 cell line panel including MDA-MB-231 breast carcinoma, MDA-MB-468 breast carcinoma, MCF7 breast carcinoma, Hs578T breast carcinoma, MALME-3M melanoma, SK-MEL-2 melanoma, SK-OV-3 ovarian carcinoma, DU-145 prostate carcinoma, PC-3 prostate carcinoma, all cell lines along with major genetic alterations are listed on Table 2. Pooled donor human umbilical vein endothelial cells (HUVEC, Lonza, cat. CC-2519) and human mesenchymal stem cells (hMSC, Lonza, cat. PT-2501) were purchased from Lonza (Walkersville, MD).
PDMR cell lines were grown in complete medium (DC medium): Dulbecco's modified Eagle's medium (DMEM)/F12 supplemented with 5% fetal bovine serum (FBS), 2 mM L-glutamine, 100 U/mL penicillin and 100 µg/ml streptomycin, 0.4 µg/ml hydrocortisone, 10 ng/ml epidermal growth factor (EGF) recombinant human protein, 24 µg/mL adenine, and 0.1 mg/mL primocin. During culture from frozen stock vials, PDMR cells were cultured in the same medium containing 10 µM Y-27632 (see Table 3). The PDCs were cultured in complete DMEM/F12 media without 10 microM Y-27632 dihydrochloride for at least two passages prior to the screen. The pooled donor HUVEC and hMSC were cultured in endothelial cell growth medium 2 (PromoCell, Heidelberg, Germany, cat. C-22011) and mesenchymal stem cell growth medium 2 (PromoCell, cat. C-28009), respectively. For all experiments, HUVEC and hMSC were used at passages </=5.
[…]
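Further: spheroids exposed to the agents for seven days before readout.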

Compound: Cn1nccc1Nc1nccc(-c2ccn(C(CO)c3ccc(Cl)c(F)c3)c(=O)c2)n1 (stereo not given)
- viability, T/C (compound 0.0316 µM): 107% and 117%
- viability, T/C (compound 0.1 µM): 108% and 112%
- viability, T/C (compound 0.316 µM): 77.1% and 79%
- viability, T/C (compound 1 µM): 39.2% and 41.8%
- viability, T/C (compound 3.16 µM): 22.2% and 22.1%
- viability, T/C (compound 10 µM): 19.1% and 18.8%
- IC50 (curve of compound): 713 nM and 761 nM

Compound: Cn1cnc2c(F)c(Nc3ccc(Br)cc3Cl)c(C(=O)NOCCO)cc21 + CC(C)NCC(C(=O)N1CCN(c2ncnc3c2C(C)CC3O)CC1)c1ccc(Cl)cc1
- IC50 (curve of first compound, second compound 0.1 µM): 540 nM
- IC50 (curve of first compound, second compound 0.316 µM): 188 nM
- IC50 (curve of first compound, second compound 1 µM): < 9.49 nM
- IC50 (curve of first compound, second compound 3.16 µM): < 9.49 nM
- IC50 (curve of first compound, second compound 10 µM): < 9.49 nM
- viability, T/C (second compound 0.1 µM, first compound 0.00949 µM): 122%
- viability, T/C (second compound 0.1 µM, first compound 0.03 µM): 125%
- viability, T/C (second compound 0.1 µM, first compound 0.0949 µM): 107%
- viability, T/C (second compound 0.1 µM, first compound 0.3 µM): 75.1%
- viability, T/C (second compound 0.1 µM, first compound 0.949 µM): 26.3%
- viability, T/C (second compound 0.1 µM, first compound 3 µM): 8.66%
- viability, T/C (second compound 0.316 µM, first compound 0.00949 µM): 72.7%
- viability, T/C (second compound 0.316 µM, first compound 0.03 µM): 69.6%
- viability, T/C (second compound 0.316 µM, first compound 0.0949 µM): 62.4%
- viability, T/C (second compound 0.316 µM, first compound 0.3 µM): 41.9%
- viability, T/C (second compound 0.316 µM, first compound 0.949 µM): 14.2%
- viability, T/C (second compound 0.316 µM, first compound 3 µM): 4.26%
- viability, T/C (second compound 1 µM, first compound 0.00949 µM): 24.5%
- viability, T/C (second compound 1 µM, first compound 0.03 µM): 26.6%
- viability, T/C (second compound 1 µM, first compound 0.0949 µM): 21.2%
- viability, T/C (second compound 1 µM, first compound 0.3 µM): 13.3%
- viability, T/C (second compound 1 µM, first compound 0.949 µM): 4.61%
- viability, T/C (second compound 1 µM, first compound 3 µM): 1.63%
- viability, T/C (second compound 3.16 µM, first compound 0.00949 µM): 8.87%
- viability, T/C (second compound 3.16 µM, first compound 0.03 µM): 7.75%
- viability, T/C (second compound 3.16 µM, first compound 0.0949 µM): 5.99%
- viability, T/C (second compound 3.16 µM, first compound 0.3 µM): 5.01%
- viability, T/C (second compound 3.16 µM, first compound 0.949 µM): 1.73%
- viability, T/C (second compound 3.16 µM, first compound 3 µM): 0.77%
- viability, T/C (second compound 10 µM, first compound 0.00949 µM): 5.26%
- viability, T/C (second compound 10 µM, first compound 0.03 µM): 3.72%
- viability, T/C (second compound 10 µM, first compound 0.0949 µM): 3.22%
- viability, T/C (second compound 10 µM, first compound 0.3 µM): 1.9%
- viability, T/C (second compound 10 µM, first compound 0.949 µM): 1.16%
- viability, T/C (second compound 10 µM, first compound 3 µM): 0.44%

Second part, led by results:

- IC50 (curve of compound): 734 nM and 640 nM
Compound: Cc1nc(NC(=O)N2CCCC2C(N)=O)sc1-c1ccnc(C(C)(C)C(F)(F)F)c1 (stereo not given)
- viability, T/C (compound 0.0316 µM): 117% and 108%
- viability, T/C (compound 0.1 µM): 128% and 98.1%
- viability, T/C (compound 0.316 µM): 84.2% and 67.8%
- viability, T/C (compound 1 µM): 36.8% and 38.8%
- viability, T/C (compound 3.16 µM): 16.5% and 12.6%
- viability, T/C (compound 10 µM): 2.78% and 1.93%

- IC50 (curve of compound): 1480 nM and 935 nM
Compound: Cn1cnc2c(F)c(Nc3ccc(Br)cc3Cl)c(C(=O)NOCCO)cc21
- viability, T/C (compound 0.00949 µM): 113% and 108%
- viability, T/C (compound 0.03 µM): 106% and 96.2%
- viability, T/C (compound 0.0949 µM): 124% and 98%
- viability, T/C (compound 0.3 µM): 117% and 99.3%
- viability, T/C (compound 0.949 µM): 70.1% and 49.4%
- viability, T/C (compound 3 µM): 18.2% and 11.6%

- IC50 (curve of compound): 163 nM and 167 nM
Compound: Cn1ncc(Cl)c1-c1cc(C(=O)NC(CN)Cc2cccc(F)c2)sc1Cl (stereo not given)
- viability, T/C (compound 0.0316 µM): 107% and 112%
- viability, T/C (compound 0.1 µM): 64.8% and 67.2%
- viability, T/C (compound 0.316 µM): 29.7% and 27.4%
- viability, T/C (compound 1 µM): 11.8% and 13.5%
- viability, T/C (compound 3.16 µM): 3.57% and 3.17%
- viability, T/C (compound 10 µM): 0.84% and 0.66%

- IC50 (curve of compound): > 100 nM
Compound: Cn1ncnc1[C@H]1c2n[nH]c(=O)c3cc(F)cc(c23)N[C@@H]1c1ccc(F)cc1
- viability, T/C (compound 0.000316 µM): 100% and 93.4%
- viability, T/C (compound 0.001 µM): 111% and 93.9%
- viability, T/C (compound 0.00316 µM): 116%
- viability, T/C (compound 0.01 µM): 108% and 101%
- viability, T/C (compound 0.0316 µM): 109% and 111%
- viability, T/C (compound 0.1 µM): 128% and 123%
